{"source": "patent US20060063810A1", "about": "“Combination treatment for impaired motor function in parkinson's disease” (priority 2003, published 2006)", "key": {"parkinsonian patients": {"tested_on": "parkinsonian patients", "details": "in vivo; cited from earlier work"}, "HD patients": {"tested_on": "HD patients", "details": "cited from earlier work"}, "[1]": {"tested_on": "Parkinson Disease patients suffering from severe bradykinesia and motor fluctuations (dyskinesias) induced by L-Dopa therapy", "assay": "Double-blind, randomized, placebo-controlled clinical study of AMN lead-in followed by add-on CIT (Example 9, Method B)", "format": "in vivo, human", "details": "patients 1, 2 and 4; first four visits; three weeks of treatment with amantadine only", "protocol": "The study is conducted in a double-blind, randomized, placebo-controlled, parallel-group design, with 2 treatment phases: 3 weeks open label, up -titration amantadine lead-in phase, follow by a 6 weeks add-on citalopram phase; performed in Parkinson Disease patients suffering from severe bradykinesia and motor fluctuations—dyskinesias—induced by L-Dopa therapy.\nAmantadine Hydrochloride: 50 mg arnantadine hydrochloride is administered as a b.i.d. regimen during 1 week. Up titration to 100 mg amantadine hydrochloride administered as a b.i.d. regimen during the second week. Up titration to 150 mg amantadine hydrochloride administered as a b.i.d. regimen during the third week. […]\nThe total score for UPDRS subscale IV is employed to evaluate the severity and characteristics of L-Dopa induced dyskinesias. The total score is calculated as the sum of all scores assigned in the dyskinesia items: 32, 33, 34 and 35; the clinical fluctuations items (calculated as the sum of all scores assigned in items 36, 38 and 39). Items 32, 33, 34 and 35 are recorded according to historical information and item 33 is also modified by office examination. […]\nThe total score of the subscale III of the UPDRS is employed to examine parkinsonian symptoms. Motor functionality is assessed as the total motor score calculated as the sum of all scores assigned in items 18, 19, 20, 21, 22, 23, 24, 25, 26, 27, 28, 29, 30 and 31. […]"}, "dyskinesia": {"tested_on": "dyskinesia", "details": "normal therapeutic (anti-anxiolytic) levels; cited from earlier work"}, "Parkinson's disease": {"tested_on": "Parkinson's disease", "details": "in vivo; cited from earlier work"}, "[2]": {"tested_on": "single Parkinson's patient", "details": "citalopram added to the anti-Parkinson's drug regime of a single patient; cited from earlier work"}, "[3]": {"tested_on": "patients suffering from different types of tremors", "details": "human, in vivo; cited from earlier work"}}, "data": [{"smiles": "CC(C)(C)N1CCC(c2ccccc2)(c2ccccc2)CC1", "note": "[Budipine, 1-Tert-butyl-4,4-diphenylpiperidine]", "values": [{"measurement": "akinesia, rigidity, and tremor", "setting": "parkinsonian patients", "value": "significantly reduces akinesia, rigidity, and tremor"}, {"measurement": "time to optimal effects after starting treatment", "setting": "parkinsonian patients", "value": "4-6 weeks"}]}, {"smiles": "NC12CC3CC(CC(C3)C1)C2", "note": "[amantadine]", "values": [{"measurement": "neuropsychologic and psychiatric assessments", "setting": "HD patients; after 6 and 12 months of therapy", "value": "No changes"}, {"measurement": "dyskinesias", "setting": "HD patients; eight HD patients, oral amantadine 100 mg tid, unblinded, 1-year period, p<0.01", "value": "significant reduction of dyskinesias"}, {"measurement": "UPDRS III scores (motor performance)", "setting": "[1]", "value": "improvement in motor performance"}, {"measurement": "UPDRS IV scores (severity and characteristics of L-Dopa induced dyskinesias, motor fluctuations)", "setting": "[1]", "value": "improvement in motor fluctuations"}]}, {"smiles": "O=C1CC2(CCCC2)CC(=O)N1CCCCN1CCN(c2ncccn2)CC1", "note": "[buspirone]", "values": [{"measurement": "effect on dyskinesia", "setting": "dyskinesia", "value": "no different than placebo"}, {"measurement": "treatment of Parkinson's disease", "setting": "Parkinson's disease", "value": "ineffective"}]}, {"smiles": "CN(C)CCCC1(c2ccc(F)cc2)OCc2cc(C#N)ccc21", "note": "(stereo not shown) [citalopram]", "values": [{"measurement": "motor symptoms", "setting": "[2]", "value": "worsened their motor symptoms"}]}, {"smiles": "O=c1n(CCCN2CCN(c3cccc(Cl)c3)CC2)nc2ccccn12", "note": "[trazodone]", "values": [{"measurement": "tremors", "setting": "[3]", "value": "significantly reduced tremors"}]}]}
